The record followed here is ChEMBL document CHEMBL1201862, “PubChem BioAssay data set” (2004).

Test systems include DLD-1; HOP-18; RXF 631; SNB-78; XF498; DMS-114; DMS-273; M19-MEL; KM-20L2.
What all share (assay): DTP human tumour cell line panel, 48 h

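Step 1: Grow cells in 96-well plates. Step 2: Expose to compound for 48 hours at 5 concentrations. Step 3: Interpolate endpoints linearly; if unreached, use highest concentration. GI50: concentration for 50% inhibition of growth.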 The source made the active and inactive calls. Rule as the data show it: active = GI50 up to about 1.1 µM and inactive = higher.

Turning to `CCCCCCCCCCCCCCCc1nnc(SCC(=O)O)[nH]1`, the GI50 (commonly the concentration that inhibits growth by half) with DLD-1 is 23.4 µM (inactive); in the assay with HOP-18, > 100 µM (inactive); in the assay on RXF 631 it was 19.6 µM (inactive); in the assay with SNB-78, > 100 µM (inactive); in the assay with XF498, 65.8 µM (inactive).

Consider `COC(=O)Cc1c([C@@]2(C)CCCC(C)(C)C2)ccc2c1C(=O)OC2`, for which the GI50 with DLD-1 is 3.62 µM (inactive); with DMS-114, 3.96 µM (inactive); with DMS-273 it was 5.43 µM (inactive); in the assay with HOP-18 it was 18.3 µM (inactive); with M19-MEL it was 15.1 µM (inactive); in the assay with RXF 631, 12.9 µM (inactive). Further, the GI50 with SNB-78 was 14.9 µM (inactive).

For `CCCC1C[C@H]2CCCCN2[C@H]2CCCN12` (stereo partly specified), the GI50 was > 50.4 µM (inactive) in the assay on DLD-1; > 51.5 µM (inactive) with DMS-114; > 61.9 µM (inactive) with DMS-273; > 100 µM (inactive) in the assay on HOP-18; > 88.3 µM (inactive) with KM-20L2; > 100 µM (inactive) in the assay on RXF 631. In addition, the GI50 in the assay on SNB-78 and in the assay on XF498 was > 100 µM (inactive) throughout.

Regarding `COc1ccc(C[C@]23CCC(=O)N2CCc2cc(OC)c(O)cc23)cc1O`, the GI50 in the assay with DMS-114, in the assay on DMS-273, in the assay on HOP-18, with KM-20L2, in the assay with M19-MEL and in the assay with RXF 631 was > 100 µM (inactive) throughout. Further, the GI50 with SNB-78 is > 100 µM (inactive).

Regarding `Cc1cc2c3c(coc3c1-c1c(C)cc3c4c(coc14)C(=O)C(O)=C3C(C)C)C(=O)C(O)=C2C(C)C`, the GI50 in the assay on DLD-1 is 4.6 µM (inactive); in the assay with DMS-114 it was 2.63 µM (inactive); in the assay with DMS-273, 4 µM (inactive); with KM-20L2 it was 6.04 µM (inactive); with M19-MEL it was 7.03 µM (inactive); in the assay with RXF 631, 8.71 µM (inactive). Also, the GI50 is 9.44 µM (inactive) in the assay on SNB-78 and 4.79 µM (inactive) in the assay on XF498.

As for `CC(C)CC(NC(=O)c1cccc(O)c1O)C(=O)NCc1cc(CNC(=O)C(CC(C)C)NC(=O)c2cccc(O)c2O)cc(CNC(=O)C(CC(C)C)NC(=O)c2cccc(O)c2O)c1` (stereo unspecified), the GI50 in the assay on DLD-1 was 20.9 µM (inactive); in the assay with DMS-114, 5.13 µM (inactive); in the assay with DMS-273, 15.6 µM (inactive); in the assay with HOP-18 it was 24 µM (inactive); with KM-20L2, 7.11 µM (inactive); with SNB-78, 29.1 µM (inactive).

With `CC1=C(C(=O)Nc2cc(F)c(F)cc2F)C(c2cccc([N+](=O)[O-])c2)C(C(=O)Nc2ccccc2C(F)(F)F)=C(C)N1` (stereo unspecified), the GI50 in the assay with DLD-1 was 25.3 µM (inactive); with DMS-114 it was 17 µM (inactive); with KM-20L2 it was 23.8 µM (inactive); with M19-MEL, 27.2 µM (inactive); in the assay on RXF 631, 19.2 µM (inactive); in the assay with SNB-78, 19.5 µM (inactive).

For the compound `CCCCc1c2c(nc3c1CC/C(=C\c1ccccc1)C3=O)CCCC2`, the GI50 with DLD-1 was 3.38 µM (inactive); in the assay with DMS-114 it was 7.74 µM (inactive); in the assay with DMS-273, 2.59 µM (inactive); with KM-20L2 it was 3.59 µM (inactive); with M19-MEL, 4.72 µM (inactive); in the assay on SNB-78 it was 2.99 µM (inactive).

As for `COc1cc2c(cc1O)C=NCC2`, the GI50 with DLD-1, in the assay with DMS-114, with DMS-273, in the assay on KM-20L2, in the assay on M19-MEL and with SNB-78 was > 100 µM (inactive) throughout. Also, in the assay with XF498, the GI50 is > 100 µM (inactive).

`CN(C)/C(N)=N\C#N`: the GI50 in the assay on DLD-1 is 48.9 µM (inactive); with DMS-114 it was 93.8 µM (inactive); in the assay on DMS-273, > 100 µM (inactive); with HOP-18, > 100 µM (inactive); in the assay on KM-20L2, > 100 µM (inactive); in the assay with M19-MEL it was 83.6 µM (inactive). The GI50 with RXF 631 and in the assay on SNB-78 was > 100 µM (inactive) in each case.

For the compound `CC1(C)C(=O)C(C)(C)C1=NN`, the GI50 with DLD-1, in the assay with DMS-114, in the assay with DMS-273, in the assay with KM-20L2, in the assay with M19-MEL and in the assay on SNB-78 was > 100 µM (inactive) throughout. Further, in the assay on XF498, the GI50 was > 100 µM (inactive).

As for `CCSC(SCC)=C1C(=O)N(c2ccccc2)N=C1C`, the GI50 is 11.8 µM (inactive) in the assay on DLD-1; 16.1 µM (inactive) in the assay on DMS-273; 13.2 µM (inactive) with HOP-18; 16.8 µM (inactive) with KM-20L2; 0.378 µM (active) in the assay with M19-MEL; 18.6 µM (inactive) with SNB-78. Further, the GI50 with XF498 was 10.6 µM (inactive).

For `O=C(c1cccs1)N(C(=S)N1CCN(c2ccccn2)CC1)C1CCCCC1`, the GI50 with DLD-1 was 63.8 µM (inactive); in the assay with DMS-114, 36.9 µM (inactive); with DMS-273, 43.1 µM (inactive); in the assay with HOP-18, > 100 µM (inactive); in the assay with KM-20L2, 70.6 µM (inactive); in the assay with SNB-78, > 100 µM (inactive).

As to `N#C/C(=C(/S)Nc1ccccc1)c1nc2ccccc2[nH]1`, the GI50 in the assay on DLD-1, with DMS-114, with DMS-273, in the assay on HOP-18, in the assay on KM-20L2 and in the assay with M19-MEL was > 10 µM (inactive) each time. In addition, the GI50 in the assay on XF498 is > 10 µM (inactive).

In the case of `Cc1cc(C=O)c2c(=O)c3c(O)ccc(/C=C/C(C)C)c3oc2c1`, the GI50 is 70.1 µM (inactive) with DLD-1; 41.4 µM (inactive) in the assay on DMS-114; 48.3 µM (inactive) in the assay with DMS-273; > 100 µM (inactive) with KM-20L2; 36.7 µM (inactive) in the assay with M19-MEL.

Regarding `NC1=NN(c2ccccc2)C(=O)C1/C(=N\NC(=O)c1cc2ccccc2cc1O)C(=O)Nc1cccc(C(F)(F)F)c1` (stereo unspecified), the GI50 with DLD-1 was 36.6 µM (inactive); in the assay on DMS-114, 24.8 µM (inactive); in the assay with HOP-18, 21.2 µM (inactive); in the assay with KM-20L2 it was 32.6 µM (inactive); in the assay with M19-MEL, 35.2 µM (inactive); in the assay with SNB-78, 44 µM (inactive). Besides, in the assay on XF498, the GI50 is 64.9 µM (inactive).

`CCN(c1ccccc1)[C@H]1C(=O)N(c2ccc([N+](=O)[O-])cc2)[C@H]1c1ccc(OC)cc1`: the GI50 is > 100 µM (inactive) in the assay with DLD-1; > 100 µM (inactive) in the assay on DMS-114; > 100 µM (inactive) in the assay on DMS-273; 61.7 µM (inactive) in the assay with M19-MEL; 35.8 µM (inactive) in the assay with RXF 631; > 100 µM (inactive) with SNB-78.

Take `CC(C)C(=O)/C=C/c1ccc(Cl)cc1`: the GI50 is 11.9 µM (inactive) with DLD-1; 16.9 µM (inactive) in the assay with DMS-114; 3.99 µM (inactive) with DMS-273; 4.9 µM (inactive) with HOP-18; 26.2 µM (inactive) in the assay on KM-20L2; 14.4 µM (inactive) in the assay with M19-MEL. In addition, the GI50 in the assay with XF498 is 7.78 µM (inactive).

In the case of `O=[N+]([O-])c1ccc(C[P+]2(c3ccccc3)CCCCC2)cc1.[O-][Cl+3]([O-])([O-])[O-]`, the GI50 in the assay with DLD-1 is > 100 µM (inactive); in the assay on DMS-114, > 100 µM (inactive); with DMS-273, > 100 µM (inactive); with HOP-18, > 100 µM (inactive); in the assay with KM-20L2 it was > 100 µM (inactive); in the assay with XF498, < 0.01 µM (active).

For `CCOP1(=O)C=CC(Cl)=C(C)C1` (stereo unspecified), the GI50 with DLD-1 was 6.97 µM (inactive); in the assay with DMS-114 it was 15.6 µM (inactive); with HOP-18, 17.4 µM (inactive); in the assay with KM-20L2, 16.9 µM (inactive); with M19-MEL, 21.6 µM (inactive); with SNB-78, 18.9 µM (inactive). Further, in the assay with XF498, the GI50 was 19 µM (inactive).

Consider `O=C1C(NCCO)=C(N2CC2)C(=O)C(NCCO)=C1N1CC1`, for which the GI50 in the assay with DLD-1 was > 46.2 µM (inactive); in the assay on DMS-114, 19.5 µM (inactive); in the assay with DMS-273 it was 5.46 µM (inactive); in the assay on HOP-18, > 100 µM (inactive); in the assay with KM-20L2, > 100 µM (inactive); with M19-MEL, 28.5 µM (inactive). Further, the GI50 in the assay on SNB-78 is > 100 µM (inactive); with XF498 it was 53.3 µM (inactive).

As to `Cc1ccc(NC(=O)CC/C(CC(=O)c2ccc(Cl)cc2)=N\NC(=O)C(=O)NN)cc1C`, the GI50 in the assay on DLD-1, in the assay on DMS-114, with DMS-273, with HOP-18, with KM-20L2 and in the assay on M19-MEL was > 100 µM (inactive) each time. Further, the GI50 with SNB-78 and in the assay with XF498 was > 100 µM (inactive) each time.

With `COc1cc(C2c3cc4c(cc3[C@@H](N(C)c3ccc(N(C)C)cc3)C3COC(=O)C23)OCO4)cc(OC)c1O` (stereo partly specified), the GI50 with DLD-1 was 0.443 µM (active); with DMS-114 it was 0.264 µM (active); in the assay on DMS-273, 0.291 µM (active); with HOP-18 it was 13.4 µM (inactive); in the assay on KM-20L2 it was 0.21 µM (active); with M19-MEL, 0.721 µM (active). Also, the figures for the GI50 with RXF 631 and in the assay with XF498 were 0.357 µM (active) and 0.286 µM (active), respectively.

On to `Nc1cccc(S(=O)(=O)NCC(=O)O)c1`, for which the GI50 with DLD-1, in the assay with DMS-114, with DMS-273, in the assay on HOP-18, with KM-20L2 and in the assay on M19-MEL was > 100 µM (inactive) throughout. In addition, the GI50 with RXF 631, with SNB-78 and in the assay on XF498 was > 100 µM (inactive) in each case.

With `COc1ccc(CNc2cc(OC)cc(OC)c2)cc1`, the GI50 is 39.4 µM (inactive) with DMS-114, 72.3 µM (inactive) with M19-MEL, 29.6 µM (inactive) in the assay with SNB-78 and 63.5 µM (inactive) with XF498.

`CCOc1ccc(NCc2cc(OC)c(OC)c(OC)c2)cc1`: the concentration for 50% growth inhibition (GI50) was 0.807 µM (active) in the assay on DLD-1, 0.291 µM (active) in the assay on DMS-114 and 0.333 µM (active) in the assay on KM-20L2.

Turning to `CCOC(=O)NC1=C(N2CC2)C(=O)C(NC(=O)OCC)=C(N2CC2)C1=O` [DIAZIQUONE], the GI50 is 7.38 µM (inactive) in the assay on DLD-1; 2.01 µM (inactive) in the assay on DMS-114; 0.596 µM (active) with DMS-273; 6.35 µM (inactive) in the assay with HOP-18; 6.93 µM (inactive) with KM-20L2; 5.38 µM (inactive) in the assay on M19-MEL. The GI50 was 7.36 µM (inactive) with SNB-78 and 3.67 µM (inactive) in the assay on XF498.
